Laboratory results from article PMC11050599, “Novel Tetracyclic Azaphenothiazines with the Quinoline Ring as New Anticancer and Antibacterial Derivatives of Chlorpromazine” (International Journal of Molecular Sciences, 2024).
In brackets after ≈: the same amount, converted by molar mass.

What was measured:
[1] = system: A549 (lung cancer); experiment: MTT assay, A549 cells; format: cell-based, human; conditions: for IC50: Homo sapiens, A549, MTT, 72 h, mean SD, read-out: IC50 A549
Experimental: (§1) The human cell lines, such as A549 (lung cancer), MDA-MB-231 (breast cancer), MiaPaca-2 (pancreatic cancer), PC3 (metastatic prostate cancer), HCT-116 (colon carcinoma), and HaCaT (immortalized keratinocytes), were sourced from the American Type Culture Collection (ATCC) in Rockville, USA. Culturing conditions varied as follows: HCT116 cells were cultured in MEM (ThermoSci, Waltham, MA, USA), A549, MDA-MB-231, MiaPaca, HaCaT cells in DMEM High Glucose and PC3 cells were cultured in RPMI (Biowest SAS, Nuaillé, France). The growth medium consisted of 10% fetal bovine serum (FBS, Sigma-Aldrich, St. Louis, MO, USA), 20 mM HEPES (Biowest, Nuaillé, France), and antibiotics (100 U/mL of penicillin and 100 μg/mL of streptomycin) from Gibco, Grand Island, NY, USA. […] These compounds were added to 96-well plates containing study cells (1 × 10^4 cells per well) and incubated for 72 h. […] Cell absorbance results were incorporated into the formula for calculating the relative MTT level (%), enabling the assessment of cell viability following exposure to the test compounds. The cell viability percentage represents the MTT reduction in cells treated with the test compounds compared to the control sample, where only the medium was added to the cells.

[2] = system: HCT116 (colon cancer); experiment: MTT assay, HCT116 cells; format: cell-based, human; conditions: for IC50: Homo sapiens, HCT-116, MTT, 72 h, read-out: IC50 HCT116; for SI HCT116: SI = IC50 for normal cell line (HaCaT)/IC50 cancer cell line
Experimental: as §1

[3] = system: PC3 (prostate cancer); experiment: MTT assay, PC3 cells; format: cell-based, human; conditions: for IC50: Homo sapiens, PC-3, MTT, 72 h, read-out: IC50 PC3; for SI PC3: SI = IC50 for normal cell line (HaCaT)/IC50 cancer cell line
Experimental: as §1

[4] = system: MiaPaCa-2 (pancreas cancer); experiment: MTT assay, MiaPaCa-2 cells; format: cell-based, human; conditions: for IC50: Homo sapiens, MIA PaCa-2, MTT, 72 h, read-out: IC50 MiaPaCa-2
Experimental: as §1

[5] = system: MDA-MB-231 (breast cancer); experiment: MTT assay, MDA-MB-231 cells; format: cell-based, human; conditions: for IC50: Homo sapiens, MDA-MB-231, MTT, 72 h, MDA-MB231, read-out: IC50 MDA; for SI MDA: SI = IC50 for normal cell line (HaCaT)/IC50 cancer cell line
Experimental: as §1

[6] = system: HaCaT (immortalized human keratinocytes); experiment: MTT assay, HaCaT normal cells; format: cell-based; conditions: Homo sapiens, HaCaT; MTT, 72 h, normal cells; read-out: IC50 HaCaT (Table 3)
Experimental: as §1

[7] = system: cancer cell lines; experiment: MTT assay, summary over several cell lines; format: cell-based, human
Experimental: as §1

[8] = system: S. aureus ATCC 25923; experiment: MIC broth microdilution; format: cell-based; conditions: Staphylococcus aureus, ATCC25923; 19 h, 35 °C; read-out: MIC S. aureus ATCC 25923
Excerpt: (§2) To evaluate the antibacterial effectiveness of chloroquinobenzothiazine derivatives, various bacterial strains from international microbe collections such as the American Type Culture Collection (ATCC) and the National Collection of Type Culture (NCTC) were examined, alongside a panel of clinical rods. This included two Gram-negative organisms, E. coli ATCC 25922 and P. aeruginosa ATCC 15442, and a series of six Gram-positive strains: S. aureus NCTC 4163; S. aureus ATCC 29213, 25923, and 6538; and S. epidermidis ATCC 12228 and 35984. […] The MIC was determined using the two-fold serial broth microdilution method in 96-well microtitration plates containing Mueller-Hinton II broth medium (Becton Dickinson, Franklin Lakes, NJ, USA). The final inoculum for all tested bacteria was adjusted to […] (colony-forming units per milliliter). The stock solution of the tested compounds was prepared in dimethyl sulfoxide (DMSO) and diluted to a maximum of 1% solvent content with a sterile medium.

[9] = system: S. epidermidis ATCC 35984; experiment: MIC broth microdilution; format: cell-based; conditions: Staphylococcus epidermidis, ATCC35984; 19 h, 35 °C; read-out: MIC S. epidermidis ATCC 35984
Excerpt: as §2

[10] = system: P. aeruginosa ATCC 15442; experiment: MIC broth microdilution; format: cell-based; conditions: Pseudomonas aeruginosa, ATCC15442; 19 h, 35 °C; read-out: MIC P. aeruginosa ATCC 15442
Excerpt: as §2

[11] = system: S. aureus NCTC 4163; experiment: MIC broth microdilution; format: cell-based; conditions: Staphylococcus aureus, NCTC4163; 19 h, 35 °C; read-out: MIC S. aureus NCTC 4163
Excerpt: as §2

[12] = system: S. aureus ATCC 6538; experiment: MIC broth microdilution; format: cell-based; conditions: Staphylococcus aureus, ATCC6538; 19 h, 35 °C; read-out: MIC S. aureus ATCC 6538
Excerpt: as §2

[13] = system: S. epidermidis ATCC 12228; experiment: MIC broth microdilution; format: cell-based; conditions: Staphylococcus epidermidis, ATCC12228; 19 h, 35 °C; read-out: MIC S. epidermidis ATCC 12228
Excerpt: as §2

[14] = system: E. coli ATCC 25922; experiment: MIC broth microdilution; format: cell-based; conditions: Escherichia coli, ATCC25922; 19 h, 35 °C; read-out: MIC E. coli ATCC 25922
Excerpt: as §2

[15] = system: S. aureus ATCC 29213; experiment: MIC broth microdilution; format: cell-based; conditions: Staphylococcus aureus, ATCC29213; 19 h, 35 °C; read-out: MIC S. aureus ATCC 29213
Excerpt: as §2

[16] = system: MiaPaCa-2 cells; experiment: Annexin V-FITC/PI apoptosis flow cytometry, MiaPaCa-2; format: cell-based, human
Experimental: To analyze the number of cells in early apoptosis, late apoptosis, or necrosis, A549, MiaPaca-2, and HCT-116 cell lines were cultured in 6-well plates with a seeding density of 1 × 10^5 cells per well. These cells were then treated with selected compounds (4, 5, and 8) at their respective IC50 concentrations and incubated for 72 h. Subsequently, a commercially available kit, the FITC: Annexin V Apoptosis Detection Kit I from BD Biosciences Pharmingen in San Jose, CA, USA, was utilized to assess apoptosis. After 72 h the cells were harvested, washed, and labeled with Annexin V-FITC and propidium iodide (PI) following the manufacturer’s protocol (Becton Dickinson), as previously described. The stained cells were analyzed by flow cytometry. The cells were identified as early apoptotic (Annexin V+/PI−) or late apoptotic/necrotic (Annexin V+/PI+).

[17] = SI = IC50 for normal cell line (HaCaT)/IC50 cancer cell line
[18] = representative dot plot, Figure 4B, IC50, 72 h

COc1cccc2c1C(=O)c1c(O)c3c(c(O)c1C2=O)C[C@@](O)(C(=O)CO)C[C@@H]3O[C@H]1C[C@H](N)[C@H](O)[C@H](C)O1 [DX, doxorubicin, reference compound]
IC50 [1]: 0.6 ± 0.2 µM
IC50 [2]: 0.59 ± 0.02 µM
SI HCT116 [2]: 0.5
IC50 [3]: 0.8 ± 0.1 µM
SI PC3 [3]: 0.15
IC50 [4]: 0.6 ± 0.2 µM
IC50 [5]: 0.8 ± 0.1 µM
SI MDA [5]: 0.15
IC50 [6]: 0.3 ± 0.1 µM
selectivity index (SI) range ([7]; A549 and MDA-MB-231 versus HaCaT): 0.14–0.15

Clc1ccc2c(c1)Nc1nc3ccccc3cc1S2 [Compound 5, 6H-8-chloroquino[3,2-b]benzo[1,4]thiazine]
IC50 [1]: 14.9 ± 2.7 µM
SI A549 [1, 17]: 3.8
IC50 [2]: 33.5 ± 6.8 µM
SI HCT116 [2]: 1.7
IC50 [3]: 76.5 ± 8.1 µM
SI PC3 [3]: 0.7
IC50 [4]: 11.1 ± 0.4 µM
SI MiaPaCa-2 [4, 17]: 5.0
MIC [8]: 8 µg/mL (≈ 28.1 µM)
MIC [9]: 8 µg/mL (≈ 28.1 µM)
MIC [10]: 256 µg/mL (≈ 899 µM)
MIC [11]: 8 µg/mL (≈ 28.1 µM)
MIC [12]: 8 µg/mL (≈ 28.1 µM)
MIC [13]: 8 µg/mL (≈ 28.1 µM)
MIC [14]: 256 µg/mL (≈ 899 µM)
MIC [15]: 8 µg/mL (≈ 28.1 µM)
IC50 [5]: 76.5 ± 0.8 µM
SI MDA [5]: 0.7
IC50 [6]: 56.5 ± 4.5 µM
IC50 ([7]; Homo sapiens, range over two cell lines not given, read-out: IC50 range against two tested cell lines): 11.1 to 14.9 µM
cells in early apoptosis, MiaPaCa-2 ([16]; compound at IC50, 72 h): 4.56%
cells in late apoptosis/necrosis, MiaPaCa-2 ([16]; compound at IC50, 72 h): 23%
MiaPaca: Alive [16, 18]: 72.68%
MiaPaca: Early Apoptotic [16, 18]: 4.56%
MiaPaca: Necrotic [16, 18]: 9.46%
MiaPaca: Necrotic/Late Apoptotic [16, 18]: 13.29%
